Measured values: patent US20040010026A1, “(R) 2-(4-amidinophenylaminomethyl)-1-methyl-5-[1-(carboxymethylamino)-1 (pyrrolidinocarbonyl)-ethyl]-benzimidazole, the monohydrochloride thereof, preparation thereof and the use as pharmaceutical composition” (Boehringer Ingelheim Pharma GmbH & Co. KG, priority 2002, published 2004)
Where a name gives a salt, the structure may show the parent alone.

Key:
[1] = Solid stress stability of the free base and of the corresponding monohydrochloride; format: physicochemical; conditions: for decomposition under temperature and relative humidity stress / decomposition under temperature stress / decomposition under light stress: solid, open glass dish; for decomposition under temperature and relative humidity stress: 70° C., approx. 90% relative humidity, 3 days; for decomposition under temperature stress: 105° C., 24 hours; for decomposition under light stress: Suntester xenon lamp, 22-24 hours
Source text: Solid stress stability data of the free base and of the corresponding monohydrochloride

[2] = Solubility in physiologically acceptable solvents; format: physicochemical

Row | Structure (SMILES) | stability (general statement) [1] | decomposition under temperature and relative humidity stress [1] | decomposition under temperature stress [1] | decomposition under light stress [1] | solubility [2]
1 | Cn1c(CNc2ccc(C(=N)N)cc2)nc2cc([C@@](C)(NCC(=O)O)C(=O)N3CCCC3)ccc21 [monohydrochloride, (R)-2-(4-Amidinophenylaminomethyl)-1-methyl-5-[1-(carboxymethylamino)-1-(pyrrolidinocarbonyl)-ethyl]-benzimidazole-monohydrochloride] | high degree of stability | no decompo- | no decompo- | (<1%) | dissolves very easily
2 | Cn1c(CNc2ccc(C(=N)N)cc2)nc2cc([C@@](C)(NCC(=O)O)C(=O)N3CCCC3)ccc21 [Free base, (R)-2-(4-Amidinophenylaminomethyl)-1-methyl-5-[1-(carboxymethylamino)-1-(pyrrolidinocarbonyl)-ethyl]-benzimidazole] | – | approx. 4% | approx. 1% | approx. 1% | –
